We go through four molecules from US12209144B2, “Cyclic peptides as proprotein convertase subtilisin/kexin type 9 (PCSK9) inhibitors for the treatment of metabolic disorders” (Novartis AG, priority 2018, dated 2025).

Bridge positions count the residues as written; N and C are the ends. Square brackets hold non-standard residues; d marks the D form. Peptide text beside a SMILES is read from it. Bip = N[C@@H](Cc1ccc(-c2ccccc2)cc1)C(=O)O; NMeE = CN[C@@H](CCC(=O)O)C(=O)O; NMeA = CN[C@@H](C)C(=O)O

Sequence of human PCSK9 (Q8NBP7 153-692): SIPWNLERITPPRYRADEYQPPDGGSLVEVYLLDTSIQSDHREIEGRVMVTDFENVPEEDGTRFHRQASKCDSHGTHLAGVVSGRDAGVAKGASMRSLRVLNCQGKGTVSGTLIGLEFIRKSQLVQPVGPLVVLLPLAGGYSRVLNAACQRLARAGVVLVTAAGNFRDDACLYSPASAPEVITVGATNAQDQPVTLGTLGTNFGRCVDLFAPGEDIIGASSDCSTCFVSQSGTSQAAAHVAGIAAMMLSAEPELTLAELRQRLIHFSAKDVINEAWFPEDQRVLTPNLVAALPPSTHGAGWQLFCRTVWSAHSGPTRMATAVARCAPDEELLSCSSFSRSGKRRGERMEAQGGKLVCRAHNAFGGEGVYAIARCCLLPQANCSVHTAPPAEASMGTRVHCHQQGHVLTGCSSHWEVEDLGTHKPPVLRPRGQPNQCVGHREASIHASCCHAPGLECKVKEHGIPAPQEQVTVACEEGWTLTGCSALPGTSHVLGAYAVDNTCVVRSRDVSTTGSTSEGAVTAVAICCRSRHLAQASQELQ
Sequence of human PCSK9 (Q8NBP7 31-152 partner limits assumed): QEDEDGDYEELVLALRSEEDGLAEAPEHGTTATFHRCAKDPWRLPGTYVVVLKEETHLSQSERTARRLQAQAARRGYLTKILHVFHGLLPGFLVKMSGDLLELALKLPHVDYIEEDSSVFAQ

The assay has as its target human PCSK9 (Homo sapiens, UniProt Q8NBP7). The assay can be described thus: PCSK9 ligand binding assay (TR-FRET): interference with binding of human PCSK9 to human LDLR. Particulars: PCSK9 FRET assay, efficacy (Amax); 0% = DMSO, 100% = 1 uM unlabeled human PCSK9. In general terms: Time-resolved FRET reads energy transfer from a long-lived donor to a nearby acceptor.
In turn, `CCNC(=O)[C@@H]1CSCC(=O)N[C@@H](Cc2ccccc2)C(=O)N[C@@H](C(C)C)C(=O)N[C@@H](CC(N)=O)C(=O)N[C@@H]([C@@H](C)O)C(=O)N[C@@H]([C@@H](C)O)C(=O)N[C@@H](Cc2ccccc2)C(=O)N(C)[C@@H](C)C(=O)N[C@@H](Cc2ccc(-c3ccccc3)cc2)C(=O)N(C)[C@@H](C)C(=O)N(C)[C@@H](CCC(=O)O)C(=O)N[C@@H](C)C(=O)N2CCC[C@H]2C(=O)N1` [Example 3-1, 3-((3R,9S,12S,15S,18S,21S,24S,27S,30S,33S,36S,39S,44aS)-30-([1,1′-biphenyl]-4-ylmethyl)-15-(2-amino-2-oxoethyl)-9,24-dibenzyl-3-(ethylcarbamoyl)-18,21-bis((R)-1-hydroxyethyl)-12-isopropyl-26,27,32,33,35,39-hexamethyl-1,7,10,13,16,19,22,25,28,31,34,37,40-tridecaoxodotetracontahydro-6H-pyrrolo[2,1-f][1]thia[4,7,10,13,16,19,22,25,28,31,34,37,40]tridecaazacyclodotetracontin-36-yl)propanoic acid] ({CH2CO}-FVNTTF[NMeA][Bip][NMeA][NMeE]APC-NHEt; thioether N-13) had a Maximum % inhibition of 61%.
In turn, `CCNC(=O)[C@@H]1CSCC(=O)N[C@@H](Cc2ccccc2)C(=O)N[C@@H](C(C)C)C(=O)N2CCC[C@H]2C(=O)N[C@@H]([C@@H](C)O)C(=O)N[C@@H]([C@@H](C)O)C(=O)N[C@@H](Cc2ccccc2)C(=O)N(C)[C@@H](C)C(=O)N[C@@H](Cc2ccc(-c3ccccc3)cc2)C(=O)N(C)[C@@H](C)C(=O)N[C@@H](CCC(=O)O)C(=O)N[C@@H](C)C(=O)N2CCC[C@H]2C(=O)N1` [Example 3-2, Ac*-F-V-P-T-T-F-(N-Me)A-B-(N-Me)A-E-A-P-C*-NHEt] ({CH2CO}-FVPTTF[NMeA][Bip][NMeA]EAPC-NHEt; thioether N-13) yielded a Maximum % inhibition of 83%.
For the molecule `CCNC(=O)[C@@H]1CSCC(=O)N[C@@H](Cc2ccccc2)C(=O)N[C@@H](C(C)C)C(=O)N2CCC[C@H]2C(=O)N[C@@H]([C@@H](C)O)C(=O)N[C@@H]([C@@H](C)O)C(=O)N[C@@H](Cc2ccc(-c3ccccc3)cc2)C(=O)N(C)[C@@H](C)C(=O)N[C@@H](Cc2ccc(-c3ccccc3)cc2)C(=O)N(C)[C@@H](C)C(=O)N[C@@H](CCC(=O)O)C(=O)N[C@@H](C)C(=O)N2CCC[C@H]2C(=O)N1` [Example 3-3, Ac*-F-V-P-T-T-B-(N-Me)A-B-(N-Me)A-E-A-P-C*-NHEt], the Maximum % inhibition turned out to be 87%.
Molecule `CCNC(=O)[C@@H]1CSCC(=O)N[C@@H](Cc2ccccc2)C(=O)N[C@@H](C(C)C)C(=O)N2CCC[C@H]2C(=O)N[C@@H]([C@@H](C)O)C(=O)N[C@@H]([C@@H](C)O)C(=O)N[C@@H](Cc2ccc(-c3ccccc3)cc2)C(=O)N(C)[C@@H](C)C(=O)N[C@@H](Cc2ccc(-c3ccccc3)cc2)C(=O)N(C)[C@@H](C)C(=O)N[C@@H](C)C(=O)N[C@@H](C)C(=O)N2CCC[C@H]2C(=O)N1` [Example 3-4, Ac*-F-V-P-T-T-B-(N-Me)A-B-(N-Me)A-A-A-P-C*-NHEt] ({CH2CO}-FVPTT[Bip][NMeA][Bip][NMeA]AAPC-NHEt; thioether N-13) registered a Maximum % inhibition of 49%.
